Measurements taken from US20250235404A1, “PEG-LIPIDS AND LIPID NANOPARTICLES” (CAPSTAN THERAPEUTICS, INC., priority 2022, published 2025).

Tests used:
[1] = Encapsulation efficiency of mRNA in LNP / tLNP (RiboGreen RNA assay); format: physicochemical; conditions: LNP whose PEG-lipid is the labelled compound; 50:10:38.5:1.5 mol/mol, mCherry mRNA, N/P 6
Excerpt: (§1) The mRNA was encapsulated in LNP using a self-assembly process in which an aqueous solution of mRNA at pH=3.5 is rapidly mixed with a solution of lipids dissolved in ethanol, then followed by stepwise phosphate and Tris buffer dilution and tangential flow filtration (TFF) purification. LNP composition in this study was: an ionizable cationic lipid of Formula 1a as shown below/distearoylphosphatidylcholine/cholesterol/PEG-lipid (50:10:38.5:1.5 mol/mol) and were encapsulated at an N/P ratio (the ratio of positively-chargeable lipid amine (N=nitrogen) groups to negatively-charged nucleic acid phosphate (P) groups) at 6. LNPs were frozen at −80° C. LNP were made in which the PEG-lipid was DMG-PEG2000, as a benchmark, or one of Compounds VI-7, VI-8, B-46, or B-47. The diameter of the nanoparticles was measured by dynamic light scattering using a Zetasizer Nano ZS (Malvern Instruments Ltd., Malvern, UK) instrument. Size measurement was carried out in pH 7.4 Tris buffer at 25° C. in relevant disposable capillary cells. A non-invasive back scatter system (NIBS) with a scattering angle of 173° was used for size measurements.
mRNA content was determined using a Quant-iT™ RiboGreen RNA assay kit (Invitrogen™). Encapsulation efficiency was calculated by determining the unencapsulated mRNA content by measuring the fluorescence intensity (Fi) upon the addition of RiboGreen reagent to the LNP and comparing this value to the total fluorescence intensity (Ft) of the RNA content that is obtained upon lysis of the LNPs by 1% Triton X-100, where % encapsulation=(Ft−Fi)/Ft×100).

[2] = Physical-chemical properties of the LNP / tLNP: hydrodynamic diameter and PDI by dynamic light scattering; format: physicochemical; conditions: for PDI* (polydispersity index) / Hydrodynamic diameter (nm): LNP whose PEG-lipid is the labelled compound, mCherry mRNA, N/P 6; for PDI* (polydispersity index): 50:10:38.5:1.5 mol/mol; for Hydrodynamic diameter (nm): ionizable cationic lipid/DSPC/cholesterol/PEG-lipid 50:10:38.5:1.5 mol/mol, pH 7.4 Tris buffer, 25° C.; for formation of LNP encapsulating mRNA: PEG-lipid at 1.5 mol % in LNP with mCherry mRNA
Protocol: The ability to incorporate various of the disclosed PEG-lipids into LNP encapsulating mRNA was assessed using mRNA encoding the fluorescent marker mCherry.
as §1
CleanCap® mCherry 5-methoxyuridine (5moU) mRNA (L-7203) was purchased from TriLink. mRNA was encapsulated in LNP using a self-assembly process in which an aqueous solution of mRNA at pH=3.5 is rapidly mixed with a solution of lipids dissolved in ethanol, then followed by stepwise phosphate and Tris buffer dilution and TFF purification. LNP composition in this study was: an ionizable cationic lipid as shown in Example 42/distearoylphosphatidylcholine/cholesterol/DMG-PEG 2000/functionalized PEG-lipid (50:10:38.5:1.4:0.1 mol/mol) and were encapsulated at an N/P ratio (the ratio of positively-chargeable […] amine (N=nitrogen) groups to negatively-charged nucleic acid phosphate (P) groups) at 6. The hydrodynamic diameter of the nanoparticles was measured by dynamic light scattering using a Zetasizer Nano ZS (Malvern Instruments Ltd., Malvern, UK) instrument.
The particle size (hydrodynamic diameter) and polydispersity index of the targeted lipid nanoparticles were determined using dynamic light scattering (DLS) on a Malvern Zetasizer Nano ZS (Malvern Instruments, Worcestershire, UK). Size measurement was carried out in pH 7.4 Tris buffer at 25° C. in relevant disposable capillary cells. A non-invasive back scatter system (NIBS) with a scattering angle of 173° was used for size measurements.

HEK293F cells = experiment: Transfection of HEK293F cells with mCherry mRNA encapsulated in LNP (flow cytometry, Aqua Live/Dead); format: cell-based, human; conditions: LNP comprising the labelled PEG-lipid; for expression level of mCherry (gMFI) compared with the benchmark LNP (DMG-PEG2000) / transfection at the lower doses: 24 hours; for expression level of mCherry (gMFI) compared with the benchmark LNP (DMG-PEG2000): FIG. 14C; for transfection at the lower doses: lower LNP doses
Protocol: The ability of the LNP formed in the preceding Example to transfect HEK293F cells, a human embryonic kidney cell-derived cell line, with the mCherry mRNA was assessed. Viral Production Cells (Gibco Catalog number: A35347), a derivative of the HEK 293F cell line adapted to a chemically-defined, serum-free and protein-free medium (LV-MAX™ Production Medium; Gibco Catalog number: A3583401) were grown in suspension, sedimented, resuspended at about 1×10^6 cells/mL, and 200 μL distributed to the wells of a 96-well U-bottom plate. Frozen LNP were thawed and diluted to 100 μg mRNA/mL with sterile water for injection. An appropriate volume of LNP was added to provide 0, 0.3, 0.6, or 2 μg RNA per well in duplicate and mixed by re-pipetting. The cells were then incubated for 1 hour at 37° C. in a CO2 incubator, washed three times with phosphate buffered saline, resuspended in 400 μL of medium in a deep-well 96-well plate, and incubated at 37° C. in a CO2 incubator on an orbital shaker at 900 RPM.
Twenty-four hours after addition of the LNP to the cells they were stained with Aqua Live/Dead (Thermo: catalog L34965) to assess cell viability. Transfection rate and expression level in the transfected cells was assessed by flow cytometry based on mCherry fluorescence.

In the case of CCCCCCCCCCCCCCCCCC(=O)OCC(COC(=O)CCCCCCCCCCCCCCCCC)CC(=O)OCCOCCOCCOCCOCCOCCOCCOCCOCCOCCOCCOCCOCCOCCOCCOCCOCCOCCOCCOCCOCCOCCOCCOCCOCCOCCOCCOCCOCCOCCOCCOCCOCCOCCOCCOCCOCCOCCOCCOCCOCCOCCOCCOCCOCCOCc1ccc(OC)cc1 [Compound B-46], the “Encapsulation Efficiency (%)” value [1] is reported as 85%, the “PDI* (polydispersity index)” value [2] is reported as 0.04 and the “Hydrodynamic diameter (nm)” value [2] is reported as 88 nm. For the same compound, the “formation of LNP encapsulating mRNA” value [2] was “formed LNP”, the “expression level of mCherry (gMFI) compared with the benchmark LNP (DMG-PEG2000)” value (HEK293F cells) was “substantially higher expression levels” and the “transfection of live cells (transfection rate)” value (HEK293F cells; highest LNP dose tested, 24 hours after addition, mCherry fluorescence, FIG. 14B) was roughly 90%. For the same compound, the “transfection at the lower doses” value (HEK293F cells; FIG. 14B) was “substantial levels of transfection”.
In the case of CCCCCCCC(CCCCCCC)CCC(=O)OCC(COC(=O)CCC(CCCCCCC)CCCCCCC)CC(=O)OCCOCCOCCOCCOCCOCCOCCOCCOCCOCCOCCOCCOCCOCCOCCOCCOCCOCCOCCOCCOCCOCCOCCOCCOCCOCCOCCOCCOCCOCCOCCOCCOCCOCCOCCOCCOCCOCCOCCOCCOCCOCCOCCOCCOCCOCc1ccc(OC)cc1 [Compound B-47], the “Encapsulation Efficiency (%)” value [1] is reported as 68%, the “PDI* (polydispersity index)” value [2] is reported as 0.12 and the “Hydrodynamic diameter (nm)” value [2] is reported as 98 nm. For the same compound, the “formation of LNP encapsulating mRNA” value [2] was “formed LNP”, the “expression level of mCherry (gMFI) compared with the benchmark LNP (DMG-PEG2000)” value (HEK293F cells) was “performed comparably” and the “transfection at the lower doses” value (HEK293F cells; FIG. 14B) was “minimal transfection”.
For “1,2-dimyristoyl-glycero-3-methoxypolyethylene glycol-2000 [DMG-PEG2000, reference compound]”, the “Encapsulation Efficiency (%)” value [1] was 96%, the “PDI* (polydispersity index)” value [2] was 0.03 and the “Hydrodynamic diameter (nm)” value [2] was 82 nm.
